The record followed here is patent US20230101747A1 (Schrödinger, Inc., priority 2019, published 2023).

Structures are written as SMILES.

The target in one assay is T1, Full length human CDC7 protein co-expressed with DBF4 (Homo sapiens, UniProt O00311).
T1 construct: Full length human CDC7 protein co-expressed with DBF4; purchased SignalChem (China)
T1 sequence (O00311 whole entry): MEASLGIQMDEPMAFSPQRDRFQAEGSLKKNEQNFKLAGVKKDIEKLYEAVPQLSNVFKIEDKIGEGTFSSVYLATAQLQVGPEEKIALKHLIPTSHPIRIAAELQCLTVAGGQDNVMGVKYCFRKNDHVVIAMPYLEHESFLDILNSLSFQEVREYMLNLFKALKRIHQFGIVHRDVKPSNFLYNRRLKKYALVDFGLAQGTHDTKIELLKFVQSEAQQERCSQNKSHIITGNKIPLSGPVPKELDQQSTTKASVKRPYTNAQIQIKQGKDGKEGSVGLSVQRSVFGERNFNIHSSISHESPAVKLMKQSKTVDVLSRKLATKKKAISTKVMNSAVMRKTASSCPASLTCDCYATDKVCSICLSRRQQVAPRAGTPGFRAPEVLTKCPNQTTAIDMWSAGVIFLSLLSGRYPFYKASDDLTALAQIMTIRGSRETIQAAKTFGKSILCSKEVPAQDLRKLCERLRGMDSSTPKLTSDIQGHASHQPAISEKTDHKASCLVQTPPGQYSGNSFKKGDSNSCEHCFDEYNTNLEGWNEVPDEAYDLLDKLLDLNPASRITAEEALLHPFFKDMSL
T1 sequence (Q9UBU7 whole entry partner): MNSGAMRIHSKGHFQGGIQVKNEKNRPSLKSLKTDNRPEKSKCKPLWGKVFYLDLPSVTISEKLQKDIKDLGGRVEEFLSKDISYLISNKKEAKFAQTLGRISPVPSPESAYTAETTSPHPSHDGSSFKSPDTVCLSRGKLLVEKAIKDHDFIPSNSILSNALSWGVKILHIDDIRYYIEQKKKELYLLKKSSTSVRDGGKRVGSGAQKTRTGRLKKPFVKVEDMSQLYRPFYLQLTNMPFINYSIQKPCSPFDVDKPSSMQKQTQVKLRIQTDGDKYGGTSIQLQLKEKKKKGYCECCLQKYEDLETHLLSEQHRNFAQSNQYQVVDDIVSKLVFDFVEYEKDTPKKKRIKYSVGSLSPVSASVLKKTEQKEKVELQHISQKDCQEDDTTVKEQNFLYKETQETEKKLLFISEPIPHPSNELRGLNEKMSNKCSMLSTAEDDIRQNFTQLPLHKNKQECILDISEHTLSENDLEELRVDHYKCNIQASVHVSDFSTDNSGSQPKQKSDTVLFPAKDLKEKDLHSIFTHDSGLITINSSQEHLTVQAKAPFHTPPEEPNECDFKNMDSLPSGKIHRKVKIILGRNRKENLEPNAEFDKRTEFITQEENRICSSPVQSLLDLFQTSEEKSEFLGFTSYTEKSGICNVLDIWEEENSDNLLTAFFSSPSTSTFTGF
Kind of assay: CDC7 kinase biochemical assay (ADP-Glo, PDKtide substrate). Conditions: 0.1 nM CDC7/DBF4, 1 uM ATP, 10 uM PDKtide, 4 h; read-out: CDC7 ADP-Glo PDKtide IC50. The procedure: CDC7 Kinase Biochemical Assay Protocol:
Full length human CDC7 protein co-expressed with DBF4 was purchased from SignalChem (China). CDC7 kinase activity was determined with PDKtide (SignalChem) as a substrate and by measuring ADP production using the ADP-Glo™ Kinase Assay kit (Promega) following the manufacturers instructions. The kinase reaction was performed using the following conditions: Buffer: 40 mM Tris pH 7.5, 20 mM MgCl2, 0.1 mg/ml BSA and 50 uM DTT. Final reaction mix contained 0.1 nM CDC7/DBF4, 1 uM ATP and 10 uM PDKtide. The kinase reaction time was 4 h. The ADP-Glo signal was measured using an EnVision plate reader (PerkinELmer).
Percent inhibition of CDC7 kinase activity was calculated based on the following formula: […]
SSample: the signal of compounds SHigh ctrl: the signal of high control (DMSO) SLow Ctrl: the signal of low control (positive control CDC7 inhibitor)
Background: In ADP-Glo the light output rises with the ADP produced.
As for `CC(=O)NC[C@@H]1COc2c(-c3cn[nH]c3)sc3c2N1CCNC3=O` [Compound 57, N-[[(7R)-12-oxo-3-(1H-pyrazol-4-yl)-5-oxa-2-thia-8,11-diazatricyclo[6.4.1.0^4,13]trideca-1(13),3-dien-7-yl]methyl]acetamide], the IC50 was below 1 nM.

For the compound `Cc1ccn(C[C@H]2CN3CCOc4c(-c5cn[nH]c5)sc(c43)C(=O)N2)n1` [Compound 43, (R)-7-((3-methyl-1H-pyrazol-1-yl)methyl)-2-(1H-pyrazol-4-yl)-4,5,7,8-tetrahydro-3-oxa-1-thia-5a,8-diazabenzo[cd]azulen-9(6H)-one], the IC50 is below 1 nM.

For the compound `O=C1N[C@@H](C2CCOCC2)CN2CCOc3c(-c4cn[nH]c4)sc1c32` [Compound 65, (S)-2-(1H-pyrazol-4-yl)-7-(tetrahydro-2H-pyran-4-yl)-4,5,7,8-tetrahydro-3-oxa-1-thia-5a,8-diazabenzo[cd]azulen-9(6H)-one], the IC50 was below 1 nM.

Regarding `COC[C@@H]1CNC(=O)c2sc(-c3ccncc3)c3c2N1CCO3` [Compound 105, (S)-6-(methoxymethyl)-2-(pyridin-4-yl)-4,5,7,8-tetrahydro-3-oxa-1-thia-5a,8-diazabenzo[cd]azulen-9(6H)-one], the IC50 was below 1 nM.

Consider `COC[C@H]1[C@@H](C2CCC2)NC(=O)c2sc(-c3cn[nH]c3)c3c2N1CCO3` (single isomer, unassigned) [Compound 98], for which the IC50 fell in the range of 1 to 10 nM.

Take `Cc1cnn(C[C@H]2CNC(=O)c3sc(-c4cn[nH]c4)c4c3N2CCO4)c1` [Compound 42, (R)-6-((4-methyl-1H-pyrazol-1-yl)methyl)-2-(1H-pyrazol-4-yl)-4,5,7,8-tetrahydro-3-oxa-1-thia-5a,8-diazabenzo[cd]azulen-9(6H)-one]: the concentration for half-maximal inhibition (IC50) was above 10 nM.

Turning to `C[C@H]1CN2CCOc3c(-c4ccncc4)sc(c32)C(=O)N1` [Compound 15, (S)-7-methyl-2-(pyridin-4-yl)-4,5,7,8-tetrahydro-3-oxa-1-thia-5a,8-diazabenzo[cd]azulen-9(6H)-one], the IC50 is below 1 nM.

`CC(C)(O)C[C@@H]1CN2CC(F)(F)Cc3c(-c4cn[nH]c4)sc(c32)C(=O)N1` [Compound 131, (R)-4,4-difluoro-7-(2-hydroxy-2-methylpropyl)-2-(1H-pyrazol-4-yl)-4,5,7,8-tetrahydro-3H-1-thia-5a,8-diazabenzo[cd]azulen-9(6H)-one]: the IC50 is below 1 nM.

On to `O=C1N[C@@H](CO)CN2CCOc3c(-c4cn[nH]c4)sc1c32` [Compound 48, (R)-7-(hydroxymethyl)-2-(1H-pyrazol-4-yl)-4,5,7,8-tetrahydro-3-oxa-1-thia-5a,8-diazabenzo[cd]azulen-9(6H)-one], for which the IC50 is below 1 nM.

Consider `O=C1N[C@H](C2CCCCO2)CN2CC(F)(F)Cc3c(-c4cn[nH]c4)sc1c32` (single isomer, unassigned) [Compound 138], for which the 50% inhibitory concentration (IC50) was in the range of 1 to 10 nM.

With `O=C1NC[C@@H](CO)N2CCOc3c(-c4cn[nH]c4)sc1c32` [Compound 34, (S)-6-(hydroxymethyl)-2-(1H-pyrazol-4-yl)-4,5,7,8-tetrahydro-3-oxa-1-thia-5a,8-diazabenzo[cd]azulen-9(6H)-one], the IC50 is below 1 nM.

`CCC(=O)C[C@@H]1CNC(=O)c2sc(-c3cn[nH]c3)c3c2N1CCC3` [Compound 90, (9R)-9-(2-oxobutyl)-3-(1H-pyrazol-4-yl)-2-thia-8,11-diazatricyclo[6.4.1.0^4,13]trideca-1(13),3-dien-12-one]: the IC50 lay in the range of 1 to 10 nM.

For the compound `O=C1NC(C2CCCCO2)CN2CCCc3c(-c4cn[nH]c4)sc1c32` (single isomer, unassigned) [Compound 108], the IC50 was below 1 nM.

For the compound `COC[C@@H]1CNC(=O)c2sc(-c3cn[nH]c3)c3c2N1CC(F)(F)O3` [Compound 133, (S)-4,4-difluoro-6-(methoxymethyl)-2-(1H-pyrazol-4-yl)-4,5,7,8-tetrahydro-3-oxa-1-thia-5a,8-diazabenzo[cd]azulen-9(6H)-one], the IC50 was below 1 nM.

With `O=C1NCC(C2CCOCC2)N2CCOc3c(-c4cn[nH]c4)sc1c32` (stereo not shown) [Compound 26, 2-(1H-pyrazol-4-yl)-6-(tetrahydro-2H-pyran-4-yl)-4,5,7,8-tetrahydro-3-oxa-1-thia-5a,8-diazabenzo[cd]azulen-9(6H)-one], the IC50 was below 1 nM.

As to `O=C1N[C@@H](C2CCC2)[C@H](CO)N2CCOc3c(-c4cn[nH]c4)sc1c32` [Compound 92, (9R,10S)-10-cyclobutyl-9-(hydroxymethyl)-3-(1H-pyrazol-4-yl)-5-oxa-2-thia-8,11-diazatricyclo[6.4.1.0^4,13]trideca-1(13),3-dien-12-one], the IC50 is below 1 nM.

Regarding `O=C1NC([C@H]2[C@@H]3COC[C@@H]32)CN2CC(F)(F)Cc3c(-c4cn[nH]c4)sc1c32` (single isomer, unassigned) [Compound 123], the half-maximal inhibitory concentration (IC50) is below 1 nM.

With `O=C1NC[C@H](CO)N2CCCc3c(-c4cn[nH]c4)sc1c32` [Compound 87, (R)-6-(hydroxymethyl)-2-(1H-pyrazol-4-yl)-4,5,7,8-tetrahydro-3H-1-thia-5a,8-diazabenzo[cd]azulen-9(6H)-one], the half-inhibitory concentration (IC50) is below 1 nM.

Consider `COC[C@@H]1[C@H](C2CCC2)NC(=O)c2sc(-c3cn[nH]c3)c3c2N1CCO3` (single isomer, unassigned) [Compound 99], for which the IC50 was 1 to 10 nM.

Turning to `CC1(C)NC(=O)c2sc(-c3c[nH]c4ncccc34)c3c2N1CCO3` [Compound 9, 6,6-dimethyl-2-(1H-pyrrolo[2,3-b]pyridin-3-yl)-4,5,6,7-tetrahydro-8H-3-oxa-1-thia-5a,7-diazaacenaphthylen-8-one], the IC50 fell in the range of 1 to 10 nM.

For `CNC[C@H]1CN2CCOc3c(-c4cn[nH]c4)sc(c32)C(=O)N1` [Compound 47, (S)-7-((methylamino)methyl)-2-(1H-pyrazol-4-yl)-4,5,7,8-tetrahydro-3-oxa-1-thia-5a,8-diazabenzo[cd]azulen-9(6H)-one], the IC50 is below 1 nM.

As for `O=C1N[C@@H]([C@@H]2CCCCO2)CN2CC(F)(F)Cc3c(-c4cn[nH]c4)sc1c32` (single isomer, unassigned) [Compound 140], the IC50 was below 1 nM.

Turning to `O=C1NC(C2CC(F)(F)C2)CN2CC(F)(F)Cc3c(-c4cn[nH]c4)sc1c32` (single isomer, unassigned) [Compound 113, (R or S)-7-(3,3-difluorocyclobutyl)-4,4-difluoro-2-(1H-pyrazol-4-yl)-4,5,7,8-tetrahydro-3H-1-thia-5a,8-diazabenzo[cd]azulen-9(6H)-one], the IC50 was below 1 nM.

As to `COC1CN(C[C@H]2CN3CC(F)(F)Cc4c(-c5cn[nH]c5)sc(c43)C(=O)N2)C1` [Compound 141, (S)-4,4-difluoro-7-((3-methoxyazetidin-1-yl)methyl)-2-(1H-pyrazol-4-yl)-4,5,7,8-tetrahydro-3H-1-thia-5a,8-diazabenzo[cd]azulen-9(6H)-one], the IC50 was in the range of 1 to 10 nM.

The assay is the same for the next values; noted with them: CDC7 ADP-Glo PDKtide IC50, 0.1 nM CDC7/DBF4, 1 uM ATP, 10 uM PDKtide, 4 h.
As for `O=C1N[C@@H](C2CCC2)C(=O)N2CCOc3c(-c4cn[nH]c4)sc1c32` [Compound 23, (S)-7-cyclobutyl-2-(1H-pyrazol-4-yl)-4,5,7,8-tetrahydro-3-oxa-1-thia-5a,8-diazabenzo[cd] azulene-6,9-dione], the IC50 was above 10 nM.

The IC50 is the concentration that gives 50% inhibition.
